From paper PMC10730852 (Communications Biology, 2023)
“And” between values parts separate entries of the source, which are not always exact repeats. Equal values may be shown once. Read-outs that look alike come from different tables or passages of the source.

How the values were obtained:
[1] = test system: E. coli/pET-22b (Control); test: Disk diffusion assay; format: cell-based, E. coli BL21 Rosetta (DE3); conditions: Escherichia coli, 24 h, read-out: inhibition zones
Procedure: The E. coli BL21 Rosetta (DE3) strains containing pET22b, and its carrying cph, cph001, cph002, cph003, aph(3′)-Ia, and mphB plasmids were cultured overnight. The cells, respectively, were then diluted to 0.1 OD600 in molten LB agar with 100 μg/mL ampicillin and 500 μM IPTG for the disk diffusion assay. The cells with ampicillin and IPTG were mixed well with molten LB agar and then poured into 10 cm diameter Petri dishes. […] The Petri dishes were placed in the incubator at 37 °C and the inhibition zones were observed after 24 hr.

E. coli/cph001 = test: Disk diffusion assay; format: cell-based, E. coli BL21 Rosetta (DE3)
Procedure: (§1) The E. coli BL21 Rosetta (DE3) strains containing pET22b, and its carrying cph, cph001, cph002, cph003, aph(3′)-Ia, and mphB plasmids were cultured overnight. The cells, respectively, were then diluted to 0.1 OD600 in molten LB agar with 100 μg/mL ampicillin and 500 μM IPTG for the disk diffusion assay. The cells with ampicillin and IPTG were mixed well with molten LB agar and then poured into 10 cm diameter Petri dishes. The 7 mm disks were placed onto the LB agar and gently loaded with varying quantities of CMN IIA, CMN IIB, VIO, Kan, and Ery, ranging from 0 to 200 μg. The Petri dishes were placed in the incubator at 37 °C and the inhibition zones were observed after 24 hr.

E. coli/cph002 = test: Disk diffusion assay; format: cell-based, E. coli BL21 Rosetta (DE3)
Procedure: as §1

E. coli/cph003 = test: Disk diffusion assay; format: cell-based, E. coli BL21 Rosetta (DE3)
Procedure: as §1

E. coli/cph = test: Disk diffusion assay; format: cell-based, E. coli BL21 Rosetta (DE3)
Procedure: as §1

Cph001 = test: Coupled enzyme assay and Michaelis-Menten kinetics of Cph001; format: biochemical, Streptosporangium roseum; conditions: for initial velocity, Figure 3c ii, Triplicate: 2 mM GTP; for initial velocity, Figure 3c i, Triplicate: 2 mM ATP; for absorbance at 340 nm, Average of triplicate: 2 mM substrate + ATP
Procedure: (§2) The phosphorylation reaction was measured by a coupled enzyme assay as following. […] The reactions were mixed well in a final volume of 200 μL in 96-well plates. The Cph001 activity was assayed by determining the oxidation of NADH at 340 nm. The reaction buffer and enzyme concentration of the Cph reaction was followed by previous study. The 340 nm absorbance changes were detected at 30 °C for every 1 min at a time in 15 min on an EPOCH Microplate Reader (BioTek). All reactions were carried out in triplicate.
The initial velocity data were plotted against substrate concentrations and fit the Michaelis-Menten equation. The Km and Vmax values were calculated based on the Michaelis-Menten equation. GraphPad Prism was used for statistical data analysis. All reactions were carried out in triplicate.

Cph = test: Coupled enzyme assay and kinetics of Cph; format: biochemical, Saccharothrix mutabilis subsp. capreolus; conditions: for absorbance at 340 nm, Average of triplicate: substrate + ATP
Procedure: as §2

[2] = Escherichia coli, 24 h, read-out: inhibition zones

N=C1NCCC([C@@H]2NC(=O)/C(=C/NC(N)=O)NC(=O)[C@H](CNC(=O)C[C@@H](N)CCCN)NC(=O)[C@H](CO)NC(=O)[C@@H](N)CNC2=O)N1 (stereo in doubt) [CMN IIA]
zone of inhibition at 12.5 µg/disc [1]: 17 mm | zone of inhibition at 50 µg/disc [1]: 22 mm | zone of inhibition at 100 µg/disc [1]: 24 mm | zone of inhibition at 200 µg/disc [1]: 27.5 mm | resistance in disk diffusion assay (E. coli/cph001; E. coli harboring cph001): becomes resistant | zone of inhibition at 12.5 µg/disc (E. coli/cph001; [2]): 9.5 mm | zone of inhibition at 50 µg/disc (E. coli/cph001; [2]): 13 mm | zone of inhibition at 100 µg/disc (E. coli/cph001; [2]): 15 mm | zone of inhibition at 200 µg/disc (E. coli/cph001; [2]): 18 mm | resistance in disk diffusion assay (E. coli/cph002; E. coli harboring cph002): becomes resistant | zone of inhibition at 12.5 µg/disc (E. coli/cph002; [2]): 14 mm | zone of inhibition at 50 µg/disc (E. coli/cph002; [2]): 17 mm | zone of inhibition at 100 µg/disc (E. coli/cph002; [2]): 19.5 mm | zone of inhibition at 200 µg/disc (E. coli/cph002; [2]): 23 mm | resistance in disk diffusion assay (E. coli/cph003; E. coli harboring cph003): becomes resistant | zone of inhibition at 12.5 µg/disc (E. coli/cph003; [2]): 13 mm | zone of inhibition at 50 µg/disc (E. coli/cph003; [2]): 16 mm | zone of inhibition at 100 µg/disc (E. coli/cph003; [2]): 20 mm | zone of inhibition at 200 µg/disc (E. coli/cph003; [2]): 22 mm | resistance in disk diffusion assay (E. coli/cph; E. coli harboring cph): becomes resistant | zone of inhibition at 50 µg/disc (E. coli/cph; [2]): 11 mm | zone of inhibition at 100 µg/disc (E. coli/cph; [2]): 13 mm | zone of inhibition at 200 µg/disc (E. coli/cph; [2]): 15.5 mm | initial velocity, Figure 3c ii, Triplicate (Cph001; 0.4 mM CMN IIA): 5.814e-5 and 4.992e-5 and 4.228e-5 | initial velocity, Figure 3c i, Triplicate (Cph001; 0.5 mM CMN IIA): 0.0001245 and 0.0001897 and 0.0001595 | initial velocity, Figure 3c ii, Triplicate (Cph001; 0.5 mM CMN IIA): 6.636e-5 and 7.341e-5 and 7.765e-5 | initial velocity, Figure 3c i, Triplicate (Cph001; 0.7 mM CMN IIA): 0.0002053 and 0.000222 and 0.0002263 | initial velocity, Figure 3c ii, Triplicate (Cph001; 0.7 mM CMN IIA): 9.514e-5 and 7.693e-5 and 6.952e-5 | initial velocity, Figure 3c i, Triplicate (Cph001; 1 mM CMN IIA): 0.0002288 and 0.0002649 and 0.0003551 | initial velocity, Figure 3c ii, Triplicate (Cph001; 1 mM CMN IIA): 0.0001233 and 0.000121 and 0.0001065 | initial velocity, Figure 3c i, Triplicate (Cph001; 2 mM CMN IIA): 0.0003304 and 0.0004291 and 0.0004233 | initial velocity, Figure 3c ii, Triplicate (Cph001; 2 mM CMN IIA): 0.0002014 and 0.0002003 and 0.0001825 | phosphorylation by Cph001 in couple enzyme assay (Cph001; 2 mM antibiotic substrate, ATP as phosphate donor, absorbance at 340 nm): decrease in absorbance at 340 nm | initial velocity, Figure 3c i, Triplicate (Cph001; 4 mM CMN IIA): 0.0003294 and 0.0004402 and 0.000432 | initial velocity, Figure 3c ii, Triplicate (Cph001; 4 mM CMN IIA): 0.0001744 and 0.0002267 and 0.0002057 | initial velocity, Figure 3c i, Triplicate (Cph001; 6 mM CMN IIA): 0.0003263 and 0.0004514 and 0.0003777 | initial velocity, Figure 3c ii, Triplicate (Cph001; 6 mM CMN IIA): 0.0002402 and 0.000232 and 0.000183 | Km (Cph001; ATP as phosphate donor (2 mM), pseudo-first-order conditions, mean ± SEM, n = 3, read-out: apparent Michaelis constant (Km) of CMN IIA): 880 ± 200 µM | Km (Cph001; ATP series, first manuscript version as quoted by Reviewer #1, read-out: measured Km of CMN IIA): 876 µM | Km (Cph001; GTP series, first manuscript version as quoted by Reviewer #1, read-out: measured Km of CMN IIA): 1400 µM | Km (Cph001; saturating GTP as phosphate donor (2 mM), mean ± SEM, n = 3, read-out: apparent Km of CMN IIA): 1400 ± 240 µM | absorbance at 340 nm, Average of triplicate (Cph001; time 00:00:00): 1.495 | absorbance at 340 nm, Average of triplicate (Cph001; time 00:01:00): 1.277 | absorbance at 340 nm, Average of triplicate (Cph001; time 00:02:00): 0.9337 | absorbance at 340 nm, Average of triplicate (Cph001; time 00:03:00): 0.6673 | absorbance at 340 nm, Average of triplicate (Cph001; time 00:04:00): 0.5687 | absorbance at 340 nm, Average of triplicate (Cph001; time 00:05:00): 0.52 | absorbance at 340 nm, Average of triplicate (Cph001; time 00:06:00): 0.3975 | absorbance at 340 nm, Average of triplicate (Cph001; time 00:07:00): 0.2841 | absorbance at 340 nm, Average of triplicate (Cph001; time 00:08:00): 0.2044 | absorbance at 340 nm, Average of triplicate (Cph001; time 00:09:00): 0.1613 | absorbance at 340 nm, Average of triplicate (Cph001; time 00:10:00): 0.1364 | absorbance at 340 nm, Average of triplicate (Cph001; time 00:11:00): 0.1231 | absorbance at 340 nm, Average of triplicate (Cph001; time 00:12:00): 0.1177 | absorbance at 340 nm, Average of triplicate (Cph001; time 00:13:00): 0.1173 | absorbance at 340 nm, Average of triplicate (Cph001; time 00:14:00): 0.1173 | absorbance at 340 nm, Average of triplicate (Cph001; time 00:15:00): 0.1177 | phosphorylation by Cph in couple enzyme assay (Cph; CMN IIA and ATP, absorbance at 340 nm): decrease in absorbance at 340 nm | absorbance at 340 nm, Average of triplicate (Cph; time 00:00:00): 1.495 | absorbance at 340 nm, Average of triplicate (Cph; time 00:01:00): 1.379 | absorbance at 340 nm, Average of triplicate (Cph; time 00:02:00): 1.219 | absorbance at 340 nm, Average of triplicate (Cph; time 00:03:00): 1.045 | absorbance at 340 nm, Average of triplicate (Cph; time 00:04:00): 0.85 | absorbance at 340 nm, Average of triplicate (Cph; time 00:05:00): 0.6453 | absorbance at 340 nm, Average of triplicate (Cph; time 00:06:00): 0.4483 | absorbance at 340 nm, Average of triplicate (Cph; time 00:07:00): 0.303 | absorbance at 340 nm, Average of triplicate (Cph; time 00:08:00): 0.2213 | absorbance at 340 nm, Average of triplicate (Cph; time 00:09:00): 0.1687 | absorbance at 340 nm, Average of triplicate (Cph; time 00:10:00): 0.136 | absorbance at 340 nm, Average of triplicate (Cph; time 00:11:00): 0.1227 | absorbance at 340 nm, Average of triplicate (Cph; time 00:12:00): 0.1173 | absorbance at 340 nm, Average of triplicate (Cph; time 00:13:00): 0.1173 | absorbance at 340 nm, Average of triplicate (Cph; time 00:14:00): 0.1173 | absorbance at 340 nm, Average of triplicate (Cph; time 00:15:00): 0.1177
